Results from the NIST ThermoML archive (doi:10.1016/j.jct.2006.07.015).
Numbers after ± are expanded uncertainties.

Experiments:
[1] = 298.15 K, 101.33 kPa, Liquid; for viscosity: Capillary tube (Ostwald / Ubbelohde) method; for speed of sound: Sing-around technique in a fixed-path interferometer; for mass density: Vibrating tube method
[2] = xn = mol fraction of the nth substance listed; conditions: 298.15 K, 101 kPa, Liquid; for viscosity: Capillary tube (Ostwald / Ubbelohde) method; for speed of sound: Sing-around technique in a fixed-path interferometer; for mass density: Vibrating tube method

## CCCCCCCO [heptan-1-ol]
[1]
  viscosity: 6.041 ± 0.044 mPa·s
  speed of sound: 1329 ± 2 m/s
  mass density: 818.77 ± 0.24 kg/m3

## CCCCCCCO [heptan-1-ol] + CC1CCCCC1
[2]; x1 = 0.1009
  viscosity: 0.797 ± 0.006 mPa·s
[2]; x1 = 0.2007
  viscosity: 0.956 ± 0.008 mPa·s
[2]; x1 = 0.3011
  viscosity: 1.174 ± 0.009 mPa·s
  mass density: 781.37 ± 0.24 kg/m3
[2]; x1 = 0.4011
  viscosity: 1.461 ± 0.011 mPa·s
[2]; x1 = 0.4501
  viscosity: 1.64 ± 0.013 mPa·s
[2]; x1 = 0.4985
  viscosity: 1.839 ± 0.014 mPa·s
[2]; x1 = 0.6033
  viscosity: 2.384 ± 0.018 mPa·s
[2]; x1 = 0.7417
  viscosity: 3.369 ± 0.025 mPa·s
[2]; x1 = 0.7985
  viscosity: 3.875 ± 0.029 mPa·s
[2]; x1 = 0.9006
  viscosity: 4.922 ± 0.036 mPa·s
[2]; x1 = 0.1031
  speed of sound: 1217 ± 2 m/s
[2]; x1 = 0.2024
  speed of sound: 1225 ± 2 m/s
[2]; x1 = 0.3006
  speed of sound: 1236 ± 2 m/s
[2]; x1 = 0.4033
  speed of sound: 1247 ± 2 m/s
[2]; x1 = 0.4973
  speed of sound: 1259 ± 2 m/s
[2]; x1 = 0.5394
  speed of sound: 1264 ± 2 m/s
[2]; x1 = 0.6026
  speed of sound: 1273 ± 2 m/s
[2]; x1 = 0.7045
  speed of sound: 1287 ± 2 m/s
[2]; x1 = 0.7972
  speed of sound: 1300 ± 2 m/s
[2]; x1 = 0.8951
  speed of sound: 1315 ± 2 m/s
[2]; x1 = 1
  speed of sound: 1329 ± 2 m/s
[2]; x1 = 0.1
  mass density: 770.2 ± 0.24 kg/m3
[2]; x1 = 0.1506
  mass density: 773.03 ± 0.24 kg/m3
[2]; x1 = 0.2001
  mass density: 775.76 ± 0.24 kg/m3
[2]; x1 = 0.4
  mass density: 786.91 ± 0.24 kg/m3
[2]; x1 = 0.449
  mass density: 789.61 ± 0.24 kg/m3
[2]; x1 = 0.5002
  mass density: 792.45 ± 0.24 kg/m3
[2]; x1 = 0.5497
  mass density: 795.18 ± 0.24 kg/m3
[2]; x1 = 0.5999
  mass density: 797.98 ± 0.24 kg/m3
[2]; x1 = 0.6503
  mass density: 800.71 ± 0.24 kg/m3
[2]; x1 = 0.7007
  mass density: 803.42 ± 0.24 kg/m3
[2]; x1 = 0.8
  mass density: 808.68 ± 0.24 kg/m3
[2]; x1 = 0.8495
  mass density: 811.24 ± 0.24 kg/m3
[2]; x1 = 0.8998
  mass density: 813.8 ± 0.24 kg/m3

## CCCCCCCO [heptan-1-ol] + ClC(Cl)=C(Cl)Cl
[2]; x1 = 1
  speed of sound: 1329 ± 2 m/s

## CC1CCCCC1 [methylcyclohexane]
[1]
  viscosity: 0.684 ± 0.007 mPa·s
  speed of sound: 1209 ± 2 m/s
  mass density: 764.99 ± 0.24 kg/m3

## CC1CCCCC1 [methylcyclohexane] + CCCCCCCO
[2]; x2 = 0
  speed of sound: 1215 ± 2 m/s

## CC1CCCCC1 [methylcyclohexane] + ClC(Cl)=C(Cl)Cl
[2]; x2 = 0
  speed of sound: 1215 ± 2 m/s

## ClC(Cl)=C(Cl)Cl [tetrachloroethene]
[1]
  viscosity: 0.847 ± 0.008 mPa·s
  speed of sound: 1039 ± 2 m/s
  mass density: 1614.49 ± 0.79 kg/m3

## ClC(Cl)=C(Cl)Cl [tetrachloroethene] + CC1CCCCC1
[2]; x1 = 0.0999
  viscosity: 0.69 ± 0.006 mPa·s
[2]; x1 = 0.2068
  viscosity: 0.698 ± 0.006 mPa·s
[2]; x1 = 0.2505
  viscosity: 0.701 ± 0.006 mPa·s
[2]; x1 = 0.2982
  viscosity: 0.705 ± 0.006 mPa·s
[2]; x1 = 0.3944
  viscosity: 0.716 ± 0.006 mPa·s
[2]; x1 = 0.4996
  viscosity: 0.728 ± 0.006 mPa·s
[2]; x1 = 0.6016
  viscosity: 0.746 ± 0.006 mPa·s
[2]; x1 = 0.7007
  viscosity: 0.765 ± 0.006 mPa·s
[2]; x1 = 0.8008
  viscosity: 0.789 ± 0.006 mPa·s
[2]; x1 = 0.8996
  viscosity: 0.816 ± 0.007 mPa·s
[2]; x1 = 0.2439
  speed of sound: 1184 ± 2 m/s
[2]; x1 = 0.4173
  speed of sound: 1156 ± 2 m/s
[2]; x1 = 0.4897
  speed of sound: 1146 ± 2 m/s
[2]; x1 = 0.5494
  speed of sound: 1136 ± 2 m/s
[2]; x1 = 0.6549
  speed of sound: 1116 ± 2 m/s
[2]; x1 = 0.7372
  speed of sound: 1098 ± 2 m/s
[2]; x1 = 0.7786
  speed of sound: 1089 ± 2 m/s
[2]; x1 = 0.8104
  speed of sound: 1082 ± 2 m/s
[2]; x1 = 0.8418
  speed of sound: 1075 ± 2 m/s
[2]; x1 = 0.8693
  speed of sound: 1069 ± 2 m/s
[2]; x1 = 0.9188
  speed of sound: 1057 ± 2 m/s
[2]; x1 = 1
  speed of sound: 1039 ± 2 m/s
[2]; x1 = 0.1007
  mass density: 834.38 ± 0.25 kg/m3
[2]; x1 = 0.1924
  mass density: 900.06 ± 0.27 kg/m3
[2]; x1 = 0.2
  mass density: 905.67 ± 0.27 kg/m3
[2]; x1 = 0.2504
  mass density: 942.96 ± 0.3 kg/m3
[2]; x1 = 0.3011
  mass density: 981.34 ± 0.33 kg/m3
[2]; x1 = 0.3029
  mass density: 982.75 ± 0.33 kg/m3
[2]; x1 = 0.4001
  mass density: 1058.76 ± 0.42 kg/m3
[2]; x1 = 0.5009
  mass density: 1141.4 ± 0.54 kg/m3
[2]; x1 = 0.5503
  mass density: 1183.38 ± 0.54 kg/m3
[2]; x1 = 0.5984
  mass density: 1225.08 ± 0.55 kg/m3
[2]; x1 = 0.6496
  mass density: 1270.62 ± 0.56 kg/m3
[2]; x1 = 0.7014
  mass density: 1317.87 ± 0.57 kg/m3
[2]; x1 = 0.7995
  mass density: 1410.5 ± 0.62 kg/m3
[2]; x1 = 0.8489
  mass density: 1458.9 ± 0.65 kg/m3
[2]; x1 = 0.8986
  mass density: 1508.67 ± 0.69 kg/m3

## ClC(Cl)=C(Cl)Cl [tetrachloroethene] + CCCCCCCO
[2]; x2 = 0.102
  viscosity: 0.995 ± 0.008 mPa·s
[2]; x2 = 0.2118
  viscosity: 1.222 ± 0.01 mPa·s
[2]; x2 = 0.2498
  viscosity: 1.32 ± 0.01 mPa·s
[2]; x2 = 0.3015
  viscosity: 1.457 ± 0.011 mPa·s
[2]; x2 = 0.3997
  viscosity: 1.795 ± 0.014 mPa·s
[2]; x2 = 0.4998
  viscosity: 2.24 ± 0.017 mPa·s
[2]; x2 = 0.5478
  viscosity: 2.485 ± 0.019 mPa·s
[2]; x2 = 0.587
  viscosity: 2.703 ± 0.021 mPa·s
[2]; x2 = 0.6995
  viscosity: 3.451 ± 0.026 mPa·s
[2]; x2 = 0.74
  viscosity: 3.742 ± 0.028 mPa·s
[2]; x2 = 0.7954
  viscosity: 4.184 ± 0.031 mPa·s
[2]; x2 = 0.8985
  viscosity: 5.06 ± 0.037 mPa·s
[2]; x2 = 0
  speed of sound: 1039 ± 2 m/s
[2]; x2 = 0.0967
  speed of sound: 1050 ± 2 m/s
[2]; x2 = 0.1957
  speed of sound: 1069 ± 2 m/s
[2]; x2 = 0.2492
  speed of sound: 1082 ± 2 m/s
[2]; x2 = 0.2952
  speed of sound: 1093 ± 2 m/s
[2]; x2 = 0.3905
  speed of sound: 1120 ± 2 m/s
[2]; x2 = 0.4667
  speed of sound: 1142 ± 2 m/s
[2]; x2 = 0.5531
  speed of sound: 1169 ± 2 m/s
[2]; x2 = 0.5894
  speed of sound: 1178 ± 2 m/s
[2]; x2 = 0.6507
  speed of sound: 1200 ± 2 m/s
[2]; x2 = 0.7002
  speed of sound: 1217 ± 2 m/s
[2]; x2 = 0.7989
  speed of sound: 1252 ± 2 m/s
[2]; x2 = 0.8969
  speed of sound: 1290 ± 2 m/s
[2]; x2 = 0.093
  mass density: 1514.31 ± 0.69 kg/m3
[2]; x2 = 0.1994
  mass density: 1409 ± 0.62 kg/m3
[2]; x2 = 0.2502
  mass density: 1361.6 ± 0.59 kg/m3
[2]; x2 = 0.2986
  mass density: 1318.1 ± 0.56 kg/m3
[2]; x2 = 0.3979
  mass density: 1233.3 ± 0.54 kg/m3
[2]; x2 = 0.4452
  mass density: 1194.85 ± 0.53 kg/m3
[2]; x2 = 0.4983
  mass density: 1153.02 ± 0.52 kg/m3
[2]; x2 = 0.5495
  mass density: 1114.05 ± 0.47 kg/m3
[2]; x2 = 0.5995
  mass density: 1077.22 ± 0.41 kg/m3
[2]; x2 = 0.6488
  mass density: 1042 ± 0.36 kg/m3
[2]; x2 = 0.6969
  mass density: 1008.69 ± 0.31 kg/m3
[2]; x2 = 0.7932
  mass density: 944.69 ± 0.27 kg/m3
[2]; x2 = 0.8497
  mass density: 908.83 ± 0.25 kg/m3
[2]; x2 = 0.8986
  mass density: 878.72 ± 0.24 kg/m3
